Counter-ions that a name gives are not always drawn.
How the values were obtained:
IKKε = IKKε (Homo sapiens (Human), UniProt Q14164); experiment: IKKε TR-FRET enzymatic assay; type: biochemical; conditions: TR-FRET, 2×Km ATP; geometric mean of minimum four determinations; read-out: IKKe IC50
hJAK2 = hJAK2 (Homo sapiens (Human), UniProt O60674); experiment: hJAK2 LANCE TR-FRET enzymatic assay; type: biochemical; conditions: read-out: JAK2 IC50
TBK1 = TBK1 (Homo sapiens (Human), UniProt Q9UHD2); experiment: TBK1 TR-FRET enzymatic assay;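 further: phosphorylation of a biotinylated Ser/Thr peptide by purified full-length recombinant TBK1, read by TR-FRET after 240 min at 25 °C, IC50 is the geometric mean of at least four runs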
TBK1, sequence (Q9UHD2 whole entry): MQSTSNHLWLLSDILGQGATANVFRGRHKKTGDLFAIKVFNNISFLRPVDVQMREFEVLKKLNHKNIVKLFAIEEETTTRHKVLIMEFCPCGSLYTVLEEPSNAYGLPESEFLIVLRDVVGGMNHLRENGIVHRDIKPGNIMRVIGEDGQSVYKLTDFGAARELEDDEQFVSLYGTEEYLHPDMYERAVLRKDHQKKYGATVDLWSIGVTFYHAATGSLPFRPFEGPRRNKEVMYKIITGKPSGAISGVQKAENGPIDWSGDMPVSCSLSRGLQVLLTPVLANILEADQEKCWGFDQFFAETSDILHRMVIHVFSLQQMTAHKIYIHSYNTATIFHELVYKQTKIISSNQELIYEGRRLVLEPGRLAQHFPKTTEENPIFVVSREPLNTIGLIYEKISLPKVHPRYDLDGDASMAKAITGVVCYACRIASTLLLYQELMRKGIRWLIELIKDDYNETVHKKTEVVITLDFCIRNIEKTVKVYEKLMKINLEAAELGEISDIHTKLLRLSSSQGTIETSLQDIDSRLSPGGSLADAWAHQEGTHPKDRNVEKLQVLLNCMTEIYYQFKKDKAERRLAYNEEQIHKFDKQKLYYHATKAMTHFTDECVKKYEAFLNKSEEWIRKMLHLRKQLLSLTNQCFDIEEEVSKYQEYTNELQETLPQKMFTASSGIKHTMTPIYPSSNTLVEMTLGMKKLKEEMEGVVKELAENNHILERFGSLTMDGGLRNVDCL

hJAK2, sequence (O60674 whole entry): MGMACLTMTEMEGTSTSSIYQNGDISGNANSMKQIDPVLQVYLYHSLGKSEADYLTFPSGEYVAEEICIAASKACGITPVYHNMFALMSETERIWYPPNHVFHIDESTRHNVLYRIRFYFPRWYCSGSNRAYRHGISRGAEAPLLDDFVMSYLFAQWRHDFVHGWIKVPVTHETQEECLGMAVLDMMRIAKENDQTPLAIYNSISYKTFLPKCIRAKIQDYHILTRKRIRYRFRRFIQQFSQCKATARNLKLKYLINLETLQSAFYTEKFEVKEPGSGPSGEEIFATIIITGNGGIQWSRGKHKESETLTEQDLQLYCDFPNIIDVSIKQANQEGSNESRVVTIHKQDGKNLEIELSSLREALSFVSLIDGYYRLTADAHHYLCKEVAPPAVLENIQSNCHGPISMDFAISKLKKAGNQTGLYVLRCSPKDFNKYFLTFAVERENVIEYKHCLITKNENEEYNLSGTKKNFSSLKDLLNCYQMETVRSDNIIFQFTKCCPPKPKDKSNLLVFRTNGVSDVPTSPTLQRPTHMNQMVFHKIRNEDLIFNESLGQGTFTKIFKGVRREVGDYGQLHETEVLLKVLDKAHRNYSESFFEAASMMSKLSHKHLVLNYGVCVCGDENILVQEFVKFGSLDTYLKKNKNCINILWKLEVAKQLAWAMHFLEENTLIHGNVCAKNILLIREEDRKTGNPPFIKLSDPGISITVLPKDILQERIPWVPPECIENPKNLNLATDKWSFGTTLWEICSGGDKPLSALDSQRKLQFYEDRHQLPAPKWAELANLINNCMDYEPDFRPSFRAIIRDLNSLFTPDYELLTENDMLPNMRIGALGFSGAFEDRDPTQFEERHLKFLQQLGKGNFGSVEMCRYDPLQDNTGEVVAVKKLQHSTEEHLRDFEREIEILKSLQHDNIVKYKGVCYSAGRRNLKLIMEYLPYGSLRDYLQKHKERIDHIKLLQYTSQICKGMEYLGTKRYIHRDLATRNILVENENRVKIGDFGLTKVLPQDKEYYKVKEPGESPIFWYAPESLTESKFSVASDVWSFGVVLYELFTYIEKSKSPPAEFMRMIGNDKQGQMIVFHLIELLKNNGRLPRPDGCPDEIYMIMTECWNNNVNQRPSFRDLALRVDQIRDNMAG
IKKε, sequence (Q14164 whole entry): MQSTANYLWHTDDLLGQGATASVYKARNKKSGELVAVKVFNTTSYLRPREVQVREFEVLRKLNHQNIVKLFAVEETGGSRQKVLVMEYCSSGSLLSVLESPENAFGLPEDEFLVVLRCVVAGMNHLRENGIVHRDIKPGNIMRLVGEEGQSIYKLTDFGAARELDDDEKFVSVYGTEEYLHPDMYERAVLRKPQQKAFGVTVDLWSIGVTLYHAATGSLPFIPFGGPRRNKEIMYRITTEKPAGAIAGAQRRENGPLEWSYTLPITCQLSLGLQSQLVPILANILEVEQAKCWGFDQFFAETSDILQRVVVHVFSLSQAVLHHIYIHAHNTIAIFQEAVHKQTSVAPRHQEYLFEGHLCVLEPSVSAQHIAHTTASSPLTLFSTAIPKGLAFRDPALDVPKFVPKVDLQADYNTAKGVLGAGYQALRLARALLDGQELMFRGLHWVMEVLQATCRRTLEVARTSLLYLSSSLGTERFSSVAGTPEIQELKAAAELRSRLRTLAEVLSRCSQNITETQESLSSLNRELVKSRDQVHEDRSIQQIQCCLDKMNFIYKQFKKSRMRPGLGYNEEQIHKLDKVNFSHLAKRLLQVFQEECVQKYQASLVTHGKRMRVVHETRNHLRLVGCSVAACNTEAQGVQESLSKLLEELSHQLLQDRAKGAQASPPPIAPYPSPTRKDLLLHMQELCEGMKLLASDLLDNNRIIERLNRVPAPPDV

| SMILES | IC50 (IKKε) [µM] | IC50 (hJAK2) [µM] | IC50 (TBK1) [µM] |
| --- | --- | --- | --- |
| C[C@H](O)C(=O)N1CC[C@H](Oc2ccc(-c3ncnc(Nc4ccc(N5CCN(C6COC6)[C@@H](CO)C5)cc4)n3)cc2C#N)[C@H](F)C1 [Example 468, 2-(((3R,4S)-3-fluoro-1-((S)-2-hydroxypropanoyl)piperidin-4-yl)oxy)-5-(4-((4-((R)-3-(hydroxymethyl)-4-(oxetan-3-yl)piperazin-1-yl)phenyl)amino)-1,3,5-triazin-2-yl)benzonitrile] | 0.002 | 0.486 | 0.003 |
| C[C@H](O)C(=O)N1CC[C@H](Oc2ccc(-c3ncnc(Nc4ccc(N5CCN(C6COC6)[C@@H](CO)C5)cc4)n3)cc2C#N)C(F)(F)C1 [Example 469, 2-(((S)-3,3-difluoro-1-((S)-2-hydroxypropanoyl)piperidin-4-yl)oxy)-5-(4-((4-((R)-3-(hydroxymethyl)-4-(oxetan-3-yl)piperazin-1-yl)phenyl)amino)-1,3,5-triazin-2-yl)benzonitrile] | 0.001 | 0.197 | 0.002 |
| C[C@H](O)CC(=O)N1CC[C@H](Oc2ccc(-c3ncnc(Nc4ccc(N5CCN(C6COC6)CC5)cc4)n3)cc2C#N)[C@H](F)C1 [Example 470, 2-(((3R,4S)-3-fluoro-1-((S)-3-hydroxybutanoyl)piperidin-4-yl)oxy)-5-(4-((4-(4-(oxetan-3-yl)piperazin-1-yl)phenyl)amino)-1,3,5-triazin-2-yl)benzonitrile] | 0.044 | ≥ 1 | 0.012 |
| C[C@@H](O)CC(=O)N1CC[C@H](Oc2ccc(-c3ncnc(Nc4ccc(N5CCN(C6COC6)CC5)cc4)n3)cc2C#N)[C@H](F)C1 [Example 471, 2-(((3R,4S)-3-fluoro-1-((R)-3-hydroxybutanoyl)piperidin-4-yl)oxy)-5-(4-((4-(4-(oxetan-3-yl)piperazin-1-yl)phenyl)amino)-1,3,5-triazin-2-yl)benzonitrile] | 0.014 | 0.702 | 0.006 |
| N#Cc1cc(-c2ncnc(Nc3ccc(N4CCN(C5COC5)CC4)cc3)n2)ccc1O[C@H]1CCN(C(=O)C2(O)COC2)C[C@H]1F [Example 472, 2-(((3R,4S)-3-fluoro-1-(3-hydroxyoxetane-3-carbonyl)piperidin-4-yl)oxy)-5-(4-((4-(4-(oxetan-3-yl)piperazin-1-yl)phenyl)amino)-1,3,5-triazin-2-yl)benzonitrile] | 0.043 | 0.971 | 0.019 |
| N#Cc1cc(-c2ncnc(Nc3ccc(N4CCN(C5COC5)CC4)cc3)n2)ccc1O[C@H]1CCN(C(=O)c2cnco2)C[C@H]1F [Example 473, 2-(((3R,4S)-3-fluoro-1-(oxazole-5-carbonyl)piperidin-4-yl)oxy)-5-(4-((4-(4-(oxetan-3-yl)piperazin-1-yl)phenyl)amino)-1,3,5-triazin-2-yl)benzonitrile] | 0.003 | 0.771 | 0.003 |
| COc1cc(Nc2ncnc(-c3ccc(O[C@H]4CCN(C(=O)[C@H](C)O)C[C@H]4F)c(C#N)c3)n2)ccn1 [Example 474] | 0.01 | ≥ 1 | 0.006 |
| N#Cc1cc(-c2ncnc(Nc3ccc(N4CCN(C5COC5)CC4)cc3)n2)ccc1O[C@H]1CCN(C(=O)[C@@H]2COCCN2)C[C@H]1F [Example 475, 2-(((3R,4S)-3-fluoro-1-((S)-morpholine-3-carbonyl)piperidin-4-yl)oxy)-5-(4-((4-(4-(oxetan-3-yl)piperazin-1-yl)phenyl)amino)-1,3,5-triazin-2-yl)benzonitrile] | 0.05 | ≥ 1 | 0.023 |
| C[C@H](O)C(=O)N1CC[C@H](Oc2ccc(-c3ncnc(Nc4ccc(-c5ccn(C)c(=O)c5)cc4)n3)cc2C#N)[C@H](F)C1 [Example 476, 2-(((3R,4S)-3-fluoro-1-((S)-2-hydroxypropanoyl)piperidin-4-yl)oxy)-5-(4-((4-(1-methyl-2-oxo-1,2-dihydropyridin-4-yl)phenyl)amino)-1,3,5-triazin-2-yl)benzonitrile] | 0.003 | ≥ 1 | 0.003 |
| N#Cc1cc(-c2ncnc(Nc3ccc(N4CCN(C5COC5)CC4)cc3)n2)ccc1O[C@H]1CCN(C(=O)c2cocn2)C[C@H]1F [Example 477, 2-(((3R,4S)-3-fluoro-1-(oxazole-4-carbonyl)piperidin-4-yl)oxy)-5-(4-((4-(4-(oxetan-3-yl)piperazin-1-yl)phenyl)amino)-1,3,5-triazin-2-yl)benzonitrile] | 0.002 | 0.526 | 0.003 |
| N#Cc1cc(-c2ncnc(Nc3ccc(N4CCN(C5COC5)CC4)cc3)n2)ccc1O[C@H]1CCN(C(=O)NO)C[C@H]1F [Example 478, (3R,4S)-4-(2-cyano-4-(4-((4-(4-(oxetan-3-yl)piperazin-1-yl)phenyl)amino)-1,3,5-triazin-2-yl)phenoxy)-3-fluoro-N-hydroxypiperidine-1-carboxamide] | 0.001 | 0.135 | 0.003 |
| COc1cc(Nc2ncnc(-c3ccc(O[C@H]4CCN(C(=O)[C@@H](O)CO)CC4(F)F)c(C#N)c3)n2)ccn1 [Example 479, 2-(((S)-1-((S)-2,3-dihydroxypropanoyl)-3,3-difluoropiperidin-4-yl)oxy)-5-(4-((2-methoxypyridin-4-yl)amino)-1,3,5-triazin-2-yl)benzonitrile] | 0.001 | ≥ 1 | 0.002 |
| N#Cc1cc(-c2ncnc(Nc3ccc(N4CCN(C5COC5)CC4)cc3)n2)ccc1O[C@H]1CCN(c2ccccn2)C[C@H]1F [Example 480, 2-(((3R,4S)-3-fluoro-1-(pyridin-2-yl)piperidin-4-yl)oxy)-5-(4-((4-(4-(oxetan-3-yl)piperazin-1-yl)phenyl)amino)-1,3,5-triazin-2-yl)benzonitrile] | 0.18 | ≥ 1 | 0.047 |
| CS(=N)(=O)c1ccc(Nc2ncnc(-c3ccc(O[C@H]4CCN(C=O)CC4(F)F)c(C#N)c3)n2)cc1 (stereo partly drawn) [Example 482, 2-(((S)-3,3-difluoro-1-formylpiperidin-4-yl)oxy)-5-(4-((4-(S-methylsulfonimidoyl)phenyl)amino)-1,3,5-triazin-2-yl)benzonitrile] | 0.007 | 0.221 | 0.005 |
| COc1cc(Nc2ncnc(-c3ccc(O[C@H]4CCN(C(=O)[C@H](C)O)C[C@H]4F)c(C#N)c3)n2)ccc1S(C)(=O)=O [Example 483, 2-(((3R,4S)-3-fluoro-1-((S)-2-hydroxypropanoyl)piperidin-4-yl)oxy)-5-(4-((3-methoxy-4-(methylsulfonyl)phenyl)amino)-1,3,5-triazin-2-yl)benzonitrile] | 0.006 | ≥ 1 | 0.008 |
| CS(=O)(=O)c1ccc(-c2ncnc(Nc3ccc(N4CCN(C5COC5)CC4)cc3)n2)cc1 [Example 484, 4-(4-(methylsulfonyl)phenyl)-N-(4-(4-(oxetan-3-yl)piperazin-1-yl)phenyl)-1,3,5-triazin-2-amine, trifluoroacetic acid salt] | ≥ 1 | 0.837 | 1 |
| Cc1cc(Nc2ncnc(-c3ccc(O[C@H]4CCN(C(=O)c5cn(C)nn5)C[C@H]4F)c(C#N)c3)n2)ccc1C1CCN(C)CC1 [Example 485, 2-(((3R,4S)-3-fluoro-1-(1-methyl-1H-1,2,3-triazole-4-carbonyl)piperidin-4-yl)oxy)-5-(4-((3-methyl-4-(1-methylpiperidin-4-yl)phenyl)amino)-1,3,5-triazin-2-yl)benzonitrile] | 0.001 | 0.576 | 0.003 |
| C[C@H](O)C(=O)N1CC[C@H](Oc2ccc(-c3ncnc(Nc4cccc(C(C)(C)O)c4)n3)cc2C#N)[C@H](F)C1 [Example 486, 2-(((3R,4S)-3-fluoro-1-((S)-2-hydroxypropanoyl)piperidin-4-yl)oxy)-5-(4-((3-(2-hydroxypropan-2-yl)phenyl)amino)-1,3,5-triazin-2-yl)benzonitrile] | 0.005 | 0.767 | 0.003 |
| Cc1cc(Nc2ncnc(-c3ccc(O[C@H]4CCN(C(=O)[C@H](C)O)C[C@H]4F)c(C#N)c3)n2)ccc1C1CCN(C)CC1 [Example 487, 2-(((3R,4S)-3-fluoro-1-((S)-2-hydroxypropanoyl)piperidin-4-yl)oxy)-5-(4-((3-methyl-4-(1-methylpiperidin-4-yl)phenyl)amino)-1,3,5-triazin-2-yl)benzonitrile] | 0.001 | 0.324 | 0.003 |
| Cc1cc(Nc2ncnc(-c3ccc(O[C@H]4CCN(C(=O)CC#N)C[C@H]4F)c(C#N)c3)n2)ccc1C1CCN(C)CC1 [Example 488, 2-(((3R,4S)-1-(2-cyanoacetyl)-3-fluoropiperidin-4-yl)oxy)-5-(4-((3-methyl-4-(1-methylpiperidin-4-yl)phenyl)amino)-1,3,5-triazin-2-yl)benzonitrile] | 0.001 | 0.131 | 0.004 |
| COCC(=O)N1CC[C@H](Oc2ccc(-c3ncnc(Nc4ccc(C5CCN(C)CC5)c(C)c4)n3)cc2C#N)[C@H](F)C1 [Example 489, 2-(((3R,4S)-3-fluoro-1-(2-methoxyacetyl)piperidin-4-yl)oxy)-5-(4-((3-methyl-4-(1-methylpiperidin-4-yl)phenyl)amino)-1,3,5-triazin-2-yl)benzonitrile] | 0.001 | 0.183 | 0.004 |
| N#Cc1cc(-c2ncnc(Nc3ccc(N4CCN(C5COC5)CC4)cc3)n2)ccc1OCC1(C#N)COC1 [Example 491, 3-((2-cyano-4-(4-((4-(4-(oxetan-3-yl)piperazin-1-yl)phenyl)amino)-1,3,5-triazin-2-yl)phenoxy)methyl)oxetane-3-carbonitrile] | 0.033 | 0.216 | 0.025 |
| COCC(=O)N1CC[C@H](Oc2ccc(-c3ncnc(Nc4ccc(C5CCN(C=O)CC5)c(C)c4)n3)cc2C#N)[C@H](F)C1 [Example 492, 2-(((3R,4S)-3-fluoro-1-(2-methoxyacetyl)piperidin-4-yl)oxy)-5-(4-((4-(1-formylpiperidin-4-yl)-3-methylphenyl)amino)-1,3,5-triazin-2-yl)benzonitrile] | 0.001 | 0.482 | 0.002 |
